# Molecular target: T1, Purified Lck (Upstate) (Homo sapiens, UniProt P06239)
# T1 construct: purchased Upstate
# Test: Assay for Lck Activity
# Format: biochemical
# Conditions: Src substrate peptide-coated plate ELISA, 0.05 mM ATP, 30° C. for 60 minutes, anti-phosphotyrosine HRP detection
# Experimental: The Src substrate peptide (Upstate) was coated onto 96-well Maxisorp plates (Nunc). Plates were sealed and incubated at 4° C., for 16 hours, washed three times with TBST (20 mM Tris-HCl pH 7.5, 150 mM NaCl and 0.1% Tween-20). The plates were blocked with 0.1% BSA and washed three times with TBST. Purified Lck (Upstate) was incubated in 100 mM Tris-HCl pH 7.5, 125 mM MgCl2, 25 mM MnCl2, 2 mM EGTA, 0.25 mM Sodium Vanadate, 2 mM DTT, 0.05 mM ATP with or without inhibitors at 30° C. for 60 minutes and washed with TBST three times. For quantification of phosphorylated tyrosines, plates were incubated with anti-phosphotyrosine, HRP conjugate (4G10, Upstate) for 1 hour at ambient temperature and washed three times with TBST. Detection was carried out using a color reagent, TMB (KPL). Ten minute after TMB addition the OD at 450 nm was measured.
# T1 sequence (P06239 whole entry, species assumed): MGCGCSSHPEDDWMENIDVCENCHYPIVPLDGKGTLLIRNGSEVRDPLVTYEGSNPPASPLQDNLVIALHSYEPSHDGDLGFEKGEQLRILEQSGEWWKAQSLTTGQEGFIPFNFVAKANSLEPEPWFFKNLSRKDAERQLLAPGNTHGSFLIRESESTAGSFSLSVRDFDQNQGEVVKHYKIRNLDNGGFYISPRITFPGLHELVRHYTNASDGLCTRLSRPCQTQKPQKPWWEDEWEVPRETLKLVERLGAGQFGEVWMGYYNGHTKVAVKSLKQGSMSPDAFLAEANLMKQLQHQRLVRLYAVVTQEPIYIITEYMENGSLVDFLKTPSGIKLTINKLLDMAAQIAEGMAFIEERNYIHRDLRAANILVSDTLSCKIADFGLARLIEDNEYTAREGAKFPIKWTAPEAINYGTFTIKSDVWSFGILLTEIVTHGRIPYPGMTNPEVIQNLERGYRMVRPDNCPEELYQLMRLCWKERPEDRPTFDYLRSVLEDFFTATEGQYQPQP
row,SMILES,IC50 [nM]
1,"c1cc(-c2cnc3ccc(NC4CCOCC4)nn23)ccn1 [Example 16, 3-(4-pyridinyl)-N-(tetrahydro-2H-pyran-4-yl)imidazo[1,2-b]pyridazin-6-amine]",460
2,"c1cc(-c2cnc3ccc(NC4CCCCC4)nn23)ccn1 [Example 44, N-Cyclohexyl-3-(4-pyridinyl)imidazo[1,2-b]pyridazin-6-amine]",380
3,"c1cc(Nc2ccc3ncc(-c4ccncc4)n3n2)ccn1 [Example 106, N,3-Di-4-pyridinylimidazo[1,2-b]pyridazin-6-amine]",410

# The next compounds have a lower IC50 than those just listed; values first:
row,IC50 [nM],SMILES
1,350,"c1ccc(Nc2ccc3ncc(-c4ccncc4)n3n2)cc1 [Example 47, N-Phenyl-3-(4-pyridinyl)imidazo[1,2-b]pyridazin-6-amine]"
2,320,"c1cc(-c2cnc3ccc(NC45CC6CC(CC(C6)C4)C5)nn23)ccn1 [Example 249, N-1-Adamantyl-3-(4-pyridinyl)imidazo[1,2-b]pyridazin-6-amine]"
3,310,"c1ccc(CNc2ccc3ncc(-c4ccncc4)n3n2)cc1 [Example 102, N-Benzyl-3-(4-pyridinyl)imidazo[1,2-b]pyridazin-6-amine]"
4,97,"O[C@H]1CC[C@H](Nc2ccc3ncc(-c4ccnc(F)c4)n3n2)CC1 [Example 153, trans-4-{[3-(2-Fluoro-4-pyridinyl)imidazo[1,2-b]pyridazin-6-yl]amino}cyclohexanol]"
5,81,"Oc1c(Cl)cc(-c2cnc3ccc(N[C@H]4CC[C@H](O)CC4)nn23)cc1Cl [Example 127, 2,6-dichloro-4-{6-[(trans-4-hydroxycyclohexyl)amino]imidazo[1,2-b]pyridazin-3-yl}phenol]"

# Reference: patent US20100216798A1, “FUSED HETEROCYCLES AS LCK INHIBITORS” (ASTELLAS PHARMA INC, priority 2005, published 2010)
